Data published in publication PMC5642477, “Phosphodiesterase 10A is overexpressed in lung tumor cells and inhibitors selectively suppress growth by blocking β-catenin and MAPK signaling” (Oncotarget, 2017).

Tests used:
[1] = test system: A549 cells; assay: Growth assay (Cell Titer Glo); format: cell-based; details: Homo sapiens; A549, 72 hours, 5% serum; read-out: Growth inhibition IC50
Experimental: (§1) Cells were plated in half area 96-well microtiter plates (Corning) at a density of 3, 000 cells per well. For drug treatment, cells were treated with compound or DMSO as vehicle (final concentration at 0.2%). For siRNA assays, cells were transfected with siRNAs under the same condition as described above. The effect of treatment on cell growth was measured using the Cell Titer Glo (CTG) assay (Promega) as specified by the measurement of viable cells based on ATP content after 72 hours standard culture. All growth assay involving NSCLCs and NHAECs were performed in the presence of 5% serum.
(§2) Drug effects on cell growth and IC50 values were determined as described previously. All experiments were repeated a minimum of three times to determine the reproducibility of the results. All error bars represent standard error of the mean (SEM). Statistical analysis was performed using Student’s t test or other as indicated. A P value of <0.05 was considered statistically significant.

[2] = test system: EKVX cells; assay: Growth assay (Cell Titer Glo); format: cell-based; details: Homo sapiens, 72 hours, read-out: Growth inhibition IC50
Experimental: as §1, §2

[3] = test system: H226 cells; assay: Growth assay (Cell Titer Glo); format: cell-based; details: Homo sapiens, NCI-H226; H226, 72 hours; read-out: Growth inhibition IC50
Experimental: as §1, §2

[4] = test system: H23 cells; assay: Growth assay (Cell Titer Glo); format: cell-based; details: Homo sapiens, NCI-H23; H23, 72 hours; read-out: Growth inhibition IC50
Experimental: as §1, §2

[5] = test system: H322M cells; assay: Growth assay (Cell Titer Glo); format: cell-based; details: Homo sapiens, NCI-H322M, 72 hours, read-out: Growth inhibition IC50
Experimental: as §1, §2

[6] = test system: H460 cells; assay: Growth assay (Cell Titer Glo); format: cell-based; details: Homo sapiens, NCI-H460; H460, 72 hours, 5% serum; read-out: Growth inhibition IC50
Experimental: as §1, §2

[7] = test system: H522 cells; assay: Growth assay (Cell Titer Glo); format: cell-based; details: Homo sapiens, NCI-H522; H522, 72 hours; read-out: Growth inhibition IC50
Experimental: as §1, §2

[8] = test system: HOP-92 cells; assay: Growth assay (Cell Titer Glo); format: cell-based; details: Homo sapiens; HOP-92, 72 hours; read-out: Growth inhibition IC50
Experimental: as §1, §2

[9] = test system: HOP62 cells; assay: Growth assay (Cell Titer Glo); format: cell-based, human; details: Homo sapiens, HOP-62; HOP62, 72 hours, 5% serum; read-out: Growth inhibition IC50
Experimental: as §1, §2

[10] = test system: β-catenin in H1299 cells; assay: Western blotting, β-catenin phosphorylation; format: cell-based, human; details: H1299, PQ10 2 µmol/L, 1 hour; KT5823 0.1 µmol/L, H89 1 µmol/L
Experimental: (§3) Whole cell extraction was performed according to a previously described method using cell lysing buffer (Cell Signaling) supplemented with 10 mmol/L NaF for protein phosphorylation studies. Cell lysates were separated by 4-12% gradient, 7% or 10% pre-casting PAGE (Novex/Invitrogen) followed by electrophoretic transfer to a nitrocellulose membrane. Western blotting procedures were performed using Chemiluminescence Reagent (Pierce) and visualized using Chemi Doc Imaging System (BioRad).

[11] = test system: cleaved PARP and caspase 3 in H1299 cells; assay: Western blotting, cleaved PARP and caspase 3 (apoptosis); format: cell-based, human; details: H1299, 24 hours of treatment
Experimental: as §3

[12] = test system: intracellular cGMP levels in H1299 cells; assay: cGMP biosensor assay (luciferase); format: cell-based, human; details: H1299, CNP 100 nmol/L; sildenafil 1 µmol/L, IBMX 100 µmol/L
Experimental: Stable cell lines with an expression of luciferase-based cGMP biosensor were established from H1299 NSCLC cells and HEK293 cells using a genetically encoded GAF-Luc construct (Promega), containing a cGMP-specific binding domain from human PDE5A GAF-A domain fused to modified firefly luciferase (35). Cells were pre-incubated at room temperature in CO2 independent media supplemented with 10% FBS and 5 mmol/L luciferin. For the measurement of intracellular cGMP levels, sodium nitroprusside (SNP) or C-type natriuretic peptide (CNP) in combination with PDE inhibitors were added to initiate the experiment and the increased luminescence values in live cells were detected constantly over a period time of 2 hours.

[13] = test system: H1299 cells; assay: Growth assay (Cell Titer Glo); format: cell-based, human; details: not shown
Experimental: as §1, §2

With `Cn1cc(-c2ccncc2)c(-c2ccc(OCc3ccc4ccccc4n3)cc2)n1` [Pf-2545920] as the compound, how does the IC50 [1] read?
Its IC50 is 15.8 µM.

And the IC50 [2]?
The IC50 was 18.6 µM.

What about the IC50 [3] of the same compound?
The IC50 was 21.1 µM.

What about the IC50 [4] of the same compound?
The IC50 was 18.1 µM.

And the IC50 [5]?
Its IC50 is 20 µM.

What about the IC50 [6] of the same compound?
The IC50 was 15.2 µM.

What about the IC50 [7] of the same compound?
The IC50 was 25.8 µM.

And the IC50 [8]?
Its IC50 is 21.4 µM.

What about the IC50 [9] of the same compound?
Its IC50 is 22.9 µM.

With `COC(=O)[C@@]1(OC)C[C@H]2O[C@]1(C)n1c3ccccc3c3c4c(c5c6ccccc6n2c5c31)C(=O)N(C)C4` [KT5823] as the compound, how does the “effect on PQ10-induced phosphorylation of β-catenin at pSer552” value [10] read?
The value was “partial inhibition”.

And the “effect on PQ10-induced activation of PARP and caspase 3” value [11]?
Its value is “attenuated”.

For `CC(C)Cn1c(=O)n(C)c(=O)c2[nH]cnc21` [IBMX], which “effect on luminescence values in biosensor assay” value [12] is on record?
The value was “increased luminescence levels”.

`CCCc1nn(C)c2c(=O)[nH]c(-c3cc(S(=O)(=O)N4CCN(C)CC4)ccc3OCC)nc12` [Sildenafil, sildenafil] was tested. Which “effect on growth of H1299 cells” value [13] did it give?
Its value is “no effect”.

And the “effect on luminescence values in biosensor assay” value [12]?
Its value is “did not affect luminescence values”.
